Experimental data: patent US20080019968A1, “DETECTION, PREVENTION AND TREATMENT OF BREAST CANCER” (The scripps Reasearch Institute, priority 2004, published 2008)

B1: Ceruloplasmine (protein, UniProt P00450 20-1065, looked up)
Ceruloplasmin: KEKHYYIGIIETTWDYASDHGEKKLISVDTEHSNIYLQNGPDRIGRLYKKALYLQYTDETFRTTIEKPVWLGFLGPIIKAETGDKVYVHLKNLASRPYTFHSHGITYYKEHEGAIYPDNTTDFQRADDKVYPGEQYTYMLLATEEQSPGEGDGNCVTRIYHSHIDAPKDIASGLIGPLIICKKDSLDKEKEKHIDREFVVMFSVVDENFSWYLEDNIKTYCSEPEKVDKDNEDFQESNRMYSVNGYTFGSLPGLSMCAEDRVKWYLFGMGNEVDVHAAFFHGQALTNKNYRIDTINLFPATLFDAYMVAQNPGEWMLSCQNLNHLKAGLQAFFQVQECNKSSSKDNIRGKHVRHYYIAAEEIIWNYAPSGIDIFTKENLTAPGSDSAVFFEQGTTRIGGSYKKLVYREYTDASFTNRKERGPEEEHLGILGPVIWAEVGDTIRVTFHNKGAYPLSIEPIGVRFNKNNEGTYYSPNYNPQSRSVPPSASHVAPTETFTYEWTVPKEVGPTNADPVCLAKMYYSAVEPTKDIFTGLIGPMKICKKGSLHANGRQKDVDKEFYLFPTVFDENESLLLEDNIRMFTTAPDQVDKEDEDFQESNKMHSMNGFMYGNQPGLTMCKGDSVVWYLFSAGNEADVHGIYFSGNTYLWRGERRDTANLFPQTSLTLHMWPDTEGTFNVECLTTDHYTGGMKQKYTVNQCRRQSEDSTFYLGERTYYIAAVEVEWDYSPQREWEKELHHLQEQNVSNAFLDKGEFYIGSKYKKVVYRQYTDSTFRVPVERKAEEEHLGILGPQLHADVGDKVKIIFKNMATRPYSIHAHGVQTESSTVTPTLPGETLTYVWKIPERSGAGTEDSACIPWAYYSTVDQVKDLYSGLIGPLIVCRRPYLKVFNPRRKLEFALLFLVFDENESWYLDDNIKTYSDHPEKVNKDDEEFIESNKMHAINGRMFGNLQGLTMHVGDEVNWYLMGMGNEIDLHTVHFHGHSFQYKHRGVYSSDVFDIFPGTYQTLEMFPRTPGIWLLHCHVTDHIHAGMETTYTVLQNEDTKSG

How the values were obtained:
[1] = system: antibodies in sera of metastatic breast cancer patients; experiment: Glycan array binding of sera of metastatic breast cancer patients; parameters: species or system human; conditions: sera diluted 1:25; for binding of antibodies from breast cancer patients to glycans: 9 metastatic breast cancer patients, IgG, IgM and IgA detected; for level of serum antibodies against the glycan in MBC patients compared to healthy individuals: 9 MBC patients vs ten healthy individuals
Description: Individual (not pooled) sera were collected from 9 patients who were diagnosed with metastatic breast cancer (MBC). Blood samples were collected before treatment, so that therapeutic intervention would not interfere with patient immune responses. One patient with breast cancer but with good prognosis (IDC, Stage 1) was also included in the study. As control, or “healthy” sera, sera from ten healthy individuals, 5 female and 5 male, with no known malignancies was collected.
Sera were diluted 1:25 with PBS containing 3% BSA, and placed on the glycan array slide in humidified chamber at room temperature for 90 min. The glycan array slide was then rinsed gently with PBS/0.05% Tween, incubated with biotinylated goat antibody against human IgG, IgM and IgA, rinsed in PBS/0.05% Tween, and incubated with streptavidin-Alexa488 fluorescent dye. Following rinses in PBS/0.05% Tween and H2O, glycan array slides were dried and scanned using the commercial DNA array scanner. […] Signal to background was typically greater 50:1 and no background subtractions were performed. Data were plotted using MS Excel software.

[2] = system: Human anti-HIV 2G12 monoclonal antibody; experiment: Glycan array binding of 2G12; conditions: 2G12 (30 μg/mL) pre-complexed with goat anti-human-IgG-FITC (15 μg/mL)
Excerpt: Glycan array fabrication.
Glycan Binding Protein binding assay.
Image acquisition and signal processing. […] Data were plotted using MS Excel software.

chST6GalNAc-I = target: T1, chST6GalNAc-I (Gallus gallus, UniProt Q92183); experiment: chST6GalNAc-I activity on small acceptor molecules; assay type: biochemical, chicken; conditions: α-D-galacto derivatives as acceptors
T1 construct: made in house; host or cells: insect cells
T1 sequence (Q92183 whole entry): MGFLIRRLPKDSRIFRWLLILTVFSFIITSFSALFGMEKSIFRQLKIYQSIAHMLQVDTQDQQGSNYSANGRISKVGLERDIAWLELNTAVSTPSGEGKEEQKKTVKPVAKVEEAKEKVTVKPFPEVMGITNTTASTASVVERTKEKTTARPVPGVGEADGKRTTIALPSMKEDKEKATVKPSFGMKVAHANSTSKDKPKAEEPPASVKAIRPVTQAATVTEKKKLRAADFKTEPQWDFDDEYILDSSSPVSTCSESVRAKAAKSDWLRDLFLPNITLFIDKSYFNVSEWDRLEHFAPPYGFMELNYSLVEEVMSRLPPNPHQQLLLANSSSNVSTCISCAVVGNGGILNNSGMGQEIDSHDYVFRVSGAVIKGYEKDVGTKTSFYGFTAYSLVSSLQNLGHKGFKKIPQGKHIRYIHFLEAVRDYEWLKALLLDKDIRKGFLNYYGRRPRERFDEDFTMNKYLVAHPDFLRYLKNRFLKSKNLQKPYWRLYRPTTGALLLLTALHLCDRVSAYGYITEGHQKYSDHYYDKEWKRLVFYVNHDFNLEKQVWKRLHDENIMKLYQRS
Excerpt: The inventors have previously reported the cloning, expression, and characterization of chicken ST6GalNAc-I and its use in preparative synthesis of the O-linked sialoside antigens, STn-, α(2-6)SiaT-, α(2-3)SiaT- and Di-SiaT-antigen. Blixt, O.; Allin, K.; Pereira, L.; Datta, A. and Paulson, J. C., J. Am. Chem. Soc. 2002, 124, 5739-5746. Briefly, the recombinant enzyme was expressed in insect cells and purified by CDP-sepharose affinity chromatography to generate approximately 10 U/L of cell culture.

Con A = Con A (Canavalia ensiformis, UniProt P02866); conditions: printing times up to 5 hours
Description: Glycan Binding Protein binding assay. Printed slides were analyzed without any further modification of the surface. Slides were incubated in either a one step procedure with labeled proteins, or a sandwich procedure in which the bound glycan binding protein (GBP) was overlaid with labeled secondary antibodies or GBP's pre-complexed with labeled antibodies. GBP's were added at a concentration of 5-50 μg/mL in buffer (usually PBS containing 0.005-0.5% Tween-20). Secondary antibodies (10 μg/mL in PBS) were overlaid on bound GBP. GBP-antibody pre-complexes were prepared in a molar ratio of 1:0.5:0.25 (5-50 μg/mL) for GBP:2° antibody:3° antibody, respectively (15 min on ice). […] Slides were subsequently washed by successive rinses in (i) PBS-Tween (0.05%), (ii) PBS and (iii) de-ionized water, then immediately subjected to imaging.
Image acquisition and signal processing. Fluorescence intensities were detected using a ScanArray 5000 (Perkin Elmer, Boston, Mass.) confocal scanner and image analyses were carried out using ImaGene image analysis software (BioDiscovery Inc, El Segundo, Calif.).
Binding of fluorescein-labeled concanavalin A (con A) was used as a measure of ligand coupling.

Molecule | binding of antibodies from breast cancer patients to glycans [1] | also measured
Ab4GNb3Ab4GNb#sp1 LacNAc-LacNAc [glycan 76] | will also bind | –
Fa2Ab3Anb3Aa4Ab4G#sp3 Globo-H [glycan 97] | bind | level of serum antibodies against the glycan in MBC patients compared to healthy individuals [1]: higher than in the healthy individuals
NNa3Ab4GNb3Ab4GNb3Ab4GNb#sp1 3′Sialyl-tri-LacNAc [glycan 180] | will also bind | –
GNb3Ab4Gb#sp1 LNT-2 [glycan 123] | bind | level of serum antibodies against the glycan in MBC patients compared to healthy individuals [1]: higher than in the healthy individuals
(Ab4GNb)3#sp1 Tri-LacNAc [glycan 9] | will also bind | –
NNa6Ab4GNb3Ab4[Fa3]GNb3Ab4[Fa3]GNb#sp1 6Sia-LacNAc-LeX-LeX [glycan 188] | will also bind | –
Man-9#aa Man9-aminoacid [glycan 145] | – | binding of 2G12 to glycans on the array [2]: smaller level of binding
Fa2Ab4GNb3Ab4GNb3Ab4GNb#sp1 H-type2-LacNAc-LacNAc [glycan 107] | will also bind | –
NNa6Ab4GNb3Ab4GNb#sp1 6SiaLacNAc-LacNAc [glycan 189] | will also bind | –
Ab3ANb4[NNa3]Ab4Gb#sp1 GM1 [glycan 58] | bind | level of serum antibodies against the glycan in MBC patients compared to healthy individuals [1]: higher than in the healthy individuals
NNa6ANa#sp2 6SiaβGalNAc [glycan 190] | bind | level of serum antibodies against the glycan in MBC patients compared to healthy individuals [1]: significantly higher levels
NNa3Ab4[Fa3]GNb3Ab4GNb#sp1 SLeXLacNAc [glycan 174] | will also bind | –
CC(=O)N[C@H]1C(O)O[C@H](CO)[C@H](O)[C@@H]1O (stereo partly drawn) [D-GalNAc] | – | chST6GalNAc-I activity, cpm (chST6GalNAc-I): 0 cpm; chST6GalNAc-I activity, nmol/mg x min^−1 (chST6GalNAc-I): 0.00 nmol/mg x min^−1
Ma2Ma3[Ma2Ma6]Ma#sp3 [glycan 136] | – | binding of 2G12 to glycans on the array [2]: strong binding; Rel. spec. (relative binding activity of 2G12) ([2]; mannose containing glycans on the array): +++ (+++ >25,000); variation in maximal binding of con A (Con A): less than 10%
NNa3Ab4GNb3Ab4GNb#sp1 3′SialylDiLacNAc [glycan 179] | will also bind | –
Fa2Ab4GNb3Ab4GNb#sp1 H-type-2-LacNAc [glycan 106] | will also bind | –
NJa6ANa#sp2 Neu5Gc6GalNAc (STn) [glycan 155] | bind | –
GNb3Ab4GNb#sp1 GlcNAcβ3LacNAc [glycan 124] | will also bind | –
Ab4GNb3Ab4[Fa3]GNb3Ab4[Fa3]GNb#sp1 LacNAc-LeX-LeX [glycan 73] | will also bind | –
B1 | bind | level of serum antibodies against the glycan in MBC patients compared to healthy individuals [1]: significantly higher levels
